{
  "source": "patent US8916711B2",
  "about": "“Imidazothiazole-chalcone derivatives as potential anticancer agents and process for the preparation thereof” (Council of Scientific and Industrial Research, priority 2009, dated 2014)",
  "type_in_all_cases": "cell-based",
  "key": {"CCRF-CEM": {"tested_on": "CCRF-CEM", "assay": "NCI in vitro cytotoxicity (SRB, 48 h), Leukemia panel", "conditions": "Homo sapiens, 48 h exposure"}, "HT29": {"tested_on": "HT29", "assay": "NCI in vitro cytotoxicity (SRB, 48 h), Colon panel", "conditions": "Homo sapiens, HT-29, 48 h exposure"}, "OVCAR-4": {"tested_on": "OVCAR-4", "assay": "NCI in vitro cytotoxicity (SRB, 48 h), Ovarian panel", "conditions": "Homo sapiens; OVCAR-4, Ovarian; 48 h exposure"}, "HOP-92": {"tested_on": "HOP-92", "assay": "NCI in vitro cytotoxicity (SRB, 48 h), Non-small cell lung panel", "conditions": "Homo sapiens"}, "KM12": {"tested_on": "KM12", "assay": "NCI in vitro cytotoxicity (SRB, 48 h), Colon panel", "conditions": "Homo sapiens, 48 h exposure"}, "A549/ATCC": {"tested_on": "A549/ATCC", "assay": "NCI in vitro cytotoxicity (SRB, 48 h), Non-small cell lung panel", "conditions": "Homo sapiens, 48 h exposure"}, "CAKI-1": {"tested_on": "CAKI-1", "assay": "NCI in vitro cytotoxicity (SRB, 48 h), Renal panel", "conditions": "Homo sapiens"}, "U251": {"tested_on": "U251", "assay": "NCI in vitro cytotoxicity (SRB, 48 h), CNS panel", "conditions": "Homo sapiens, U-251, 48 h exposure"}, "NCI-H322M": {"tested_on": "NCI-H322M", "assay": "NCI in vitro cytotoxicity (SRB, 48 h), Non-small cell lung panel", "conditions": "Homo sapiens, 48 h exposure"}, "Leukemia cell lines": {"tested_on": "Leukemia cell lines", "assay": "NCI in vitro cytotoxicity, whole panel", "conditions": "Homo sapiens"}, "MOLT-4": {"tested_on": "MOLT-4", "assay": "NCI in vitro cytotoxicity (SRB, 48 h), Leukemia panel", "conditions": "Homo sapiens; MOLT-4, Leukemia; 48 h exposure"}, "SF-295": {"tested_on": "SF-295", "assay": "NCI in vitro cytotoxicity (SRB, 48 h), CNS panel", "conditions": "Homo sapiens; SF-295, CNS; 48 h exposure"}, "SF-268": {"tested_on": "SF-268", "assay": "NCI in vitro cytotoxicity (SRB, 48 h), CNS panel", "conditions": "Homo sapiens; SF-268, CNS; 48 h exposure"}, "[1]": {"tested_on": "sixty human tumour cell lines", "assay": "NCI in vitro cytotoxicity, all panels"}, "MDA-MB-468": {"tested_on": "MDA-MB-468", "assay": "NCI in vitro cytotoxicity (SRB, 48 h), Breast panel", "conditions": "Homo sapiens; MDA-MB-468, Breast; 48 h exposure"}, "NCI-H226": {"tested_on": "NCI-H226", "assay": "NCI in vitro cytotoxicity (SRB, 48 h), Non-small cell lung panel", "conditions": "Homo sapiens, 48 h exposure"}, "MALME-3M": {"tested_on": "MALME-3M", "assay": "NCI in vitro cytotoxicity (SRB, 48 h), Melanoma panel", "conditions": "Homo sapiens, 48 h exposure"}, "SK-MEL-28": {"tested_on": "SK-MEL-28", "assay": "NCI in vitro cytotoxicity (SRB, 48 h), Melanoma panel", "conditions": "Homo sapiens; SK-MEL-28, Melanoma; 48 h exposure"}, "UO-31": {"tested_on": "UO-31", "assay": "NCI in vitro cytotoxicity (SRB, 48 h), Renal panel", "conditions": "Homo sapiens; UO-31, Renal; 48 h exposure"}, "Breast cancer cell lines": {"tested_on": "Breast cancer cell lines", "assay": "NCI in vitro cytotoxicity, whole panel", "conditions": "Homo sapiens"}, "IGROV1": {"tested_on": "IGROV1", "assay": "NCI in vitro cytotoxicity (SRB, 48 h), Ovarian panel", "conditions": "Homo sapiens, IGROV-1"}, "SN12C": {"tested_on": "SN12C", "assay": "NCI in vitro cytotoxicity (SRB, 48 h), Renal panel", "conditions": "Homo sapiens, 48 h exposure"}, "UACC-62": {"tested_on": "UACC-62", "assay": "NCI in vitro cytotoxicity (SRB, 48 h), Melanoma panel", "conditions": "Homo sapiens; UACC-62, Melanoma; 48 h exposure"}, "MCF7": {"tested_on": "MCF7", "assay": "NCI in vitro cytotoxicity (SRB, 48 h), Breast panel", "conditions": "Homo sapiens", "protocol": "(§1) The imidazothiazole-chalcone hybrids 7a, 7e, 7f, 8f and 19e have been tested against sixty human tumour cell lines derived from nine cancer types (leukemia, non-small cell lung cancer, colon cancer, CNS cancer, melanoma, ovarian cancer, renal cancer, prostate cancer and breast cancer) as per NCI protocol. For each compound, dose response curves for individual cell lines have been measured at a minimum of five concentrations at 10 fold dilutions. A protocol of 48 h continuous drug exposure has been used, and a sulforhodamine B (SRB) protein assay was used to estimate cell viability or growth. The concentration for 50% cell growth inhibition (GI50), total cell growth inhibition (TGI, 0% growth) and 50% cell death (LC50, […]) compared with the control has been calculated (Table-1)."}, "MDA-MB-231/ATCC": {"tested_on": "MDA-MB-231/ATCC", "assay": "NCI in vitro cytotoxicity (SRB, 48 h), Breast panel", "conditions": "Homo sapiens", "protocol": "as §1"}, "HCT-116": {"tested_on": "HCT-116", "assay": "NCI in vitro cytotoxicity (SRB, 48 h), Colon panel", "conditions": "Homo sapiens"}, "[2]": {"tested_on": "Ovarian cancer cell lines", "assay": "NCI in vitro cytotoxicity, whole panel", "conditions": "Homo sapiens"}, "BT-549": {"tested_on": "BT-549", "assay": "NCI in vitro cytotoxicity (SRB, 48 h), Breast panel", "conditions": "Homo sapiens; BT-549, Breast; 48 h exposure"}, "NCI-H522": {"tested_on": "NCI-H522", "assay": "NCI in vitro cytotoxicity (SRB, 48 h), Non-small cell lung panel", "conditions": "Homo sapiens, 48 h exposure"}, "SF-539": {"tested_on": "SF-539", "assay": "NCI in vitro cytotoxicity (SRB, 48 h), CNS panel", "conditions": "Homo sapiens; SF-539, CNS; 48 h exposure"}, "MDAMB-435": {"tested_on": "MDAMB-435", "assay": "NCI in vitro cytotoxicity (SRB, 48 h), Melanoma panel", "conditions": "Homo sapiens, MDA-MB-435; MDAMB-435, Melanoma; 48 h exposure"}, "HCT-15": {"tested_on": "HCT-15", "assay": "NCI in vitro cytotoxicity (SRB, 48 h), Colon panel", "conditions": "Homo sapiens; HCT-15, Colon; 48 h exposure"}},
  "note": "Like-named read-outs stand apart in the source and are kept apart here.",
  "data": [
    {"smiles": "COc1cc(C(=O)/C=C/c2c(-c3ccc(F)cc3)nc3sccn23)cc(OC)c1OC", "note": "[Compound 7e, (E)-3-(6-(4-fluorophenyl)imidazo[2,1-b]thiazol-5-yl)-1-(3,4,5-trimethoxyphenyl)prop-2-en-1-one]", "values": [
      {"measurement": "GI50", "setting": "CCRF-CEM", "value": 2230, "unit": "nM"},
      {"measurement": "GI50", "setting": "HT29", "value": 2840, "unit": "nM"},
      {"measurement": "GI50", "setting": "OVCAR-4", "value": 3780, "unit": "nM"},
      {"measurement": "GI50", "setting": "HOP-92; HOP-92, Non-small cell lung, 48 h exposure", "value": 1050, "unit": "nM"},
      {"measurement": "GI50", "setting": "HOP-92; HOP-92, non-small cell lung", "value": 1050, "unit": "nM"},
      {"measurement": "IC50", "setting": "HOP-92; HOP-92, Table 4, read-out: Comparative efficacy", "value": 1050, "unit": "nM"},
      {"measurement": "GI50", "setting": "KM12", "value": 2300, "unit": "nM"},
      {"measurement": "GI50", "setting": "A549/ATCC", "value": 2090, "unit": "nM"},
      {"measurement": "GI50", "setting": "CAKI-1; CAKI-1, Renal, 48 h exposure", "value": 40, "unit": "nM"},
      {"measurement": "IC50", "setting": "CAKI-1; CAKI-1, Table 4, read-out: Comparative efficacy", "value": 40, "unit": "nM"},
      {"measurement": "GI50", "setting": "U251", "value": 2180, "unit": "nM"},
      {"measurement": "GI50", "setting": "NCI-H322M", "value": 3630, "unit": "nM"},
      {"measurement": "GI50", "setting": "Leukemia cell lines; Leukemia, average of six to eight cell lines, read-out: Log10 GI50 (converted)", "value": 1860, "unit": "nM"},
      {"measurement": "CC50", "setting": "Leukemia cell lines; Leukemia, average of six to eight cell lines, read-out: Log10 LC50 (converted)", "value": 70800, "unit": "nM"},
      {"measurement": "GI50", "setting": "Leukemia cell lines; exposure period of at least 48 hrs, read-out: GI50, range over leukemia cell lines", "value": "1550 to 2230", "unit": "nM"},
      {"measurement": "GI50", "setting": "MOLT-4", "value": 2070, "unit": "nM"},
      {"measurement": "GI50", "setting": "SF-295", "value": 1800, "unit": "nM"},
      {"measurement": "GI50", "setting": "SF-268", "value": 2520, "unit": "nM"},
      {"measurement": "GI50", "setting": "[1]; Homo sapiens, sixty cell lines, nine panels, read-out: GI50 against sixty cell lines in nine cell panels", "value": "< 9000", "unit": "nM"},
      {"measurement": "Log10 TGI mean graph midpoint (MG_MID)", "setting": "[1]; human tumour cell lines", "value": "−5.02"},
      {"measurement": "in vitro cytotoxicity, in words", "setting": "[1]; human tumour cell lines", "value": "significant cytotoxicity"},
      {"measurement": "GI50", "setting": "[1]; human tumour cell lines, read-out: Log10 GI50 mean graph midpoint (MG_MID) (converted)", "value": 2240, "unit": "nM"},
      {"measurement": "CC50", "setting": "[1]; human tumour cell lines, read-out: Log10 LC50 mean graph midpoint (MG_MID) (converted)", "value": 58900, "unit": "nM"},
      {"measurement": "GI50", "setting": "MDA-MB-468", "value": 3170, "unit": "nM"},
      {"measurement": "GI50", "setting": "NCI-H226", "value": 1890, "unit": "nM"},
      {"measurement": "GI50", "setting": "MALME-3M", "value": 8270, "unit": "nM"},
      {"measurement": "GI50", "setting": "SK-MEL-28", "value": 4190, "unit": "nM"},
      {"measurement": "GI50", "setting": "UO-31", "value": 2030, "unit": "nM"},
      {"measurement": "GI50", "setting": "Breast cancer cell lines; Breast, average of six to eight cell lines, read-out: Log10 GI50 (converted)", "value": 2820, "unit": "nM"},
      {"measurement": "CC50", "setting": "Breast cancer cell lines; Breast, average of six to eight cell lines, read-out: Log10 LC50 (converted)", "value": "≥ 100000", "unit": "nM"},
      {"measurement": "IC50", "setting": "Breast cancer cell lines; exposure period of at least 48 hrs, read-out: IC50, range over breast cell lines", "value": "2050 to 3760", "unit": "nM"},
      {"measurement": "GI50", "setting": "IGROV1; IGROV1, Ovarian, 48 h exposure", "value": 1040, "unit": "nM"},
      {"measurement": "GI50", "setting": "IGROV1; IGROV1, ovarian", "value": 1040, "unit": "nM"},
      {"measurement": "IC50", "setting": "IGROV1; IGROV1, Table 4, read-out: Comparative efficacy", "value": 1040, "unit": "nM"},
      {"measurement": "GI50", "setting": "SN12C", "value": 1880, "unit": "nM"},
      {"measurement": "GI50", "setting": "UACC-62", "value": 1820, "unit": "nM"},
      {"measurement": "IC50", "setting": "MCF7; MCF7, MCF-7, Table 4, read-out: Comparative efficacy", "value": 2240, "unit": "nM"},
      {"measurement": "GI50", "setting": "MCF7; MCF7, Breast, 48 h exposure", "value": 2240, "unit": "nM"},
      {"measurement": "GI50", "setting": "MDA-MB-231/ATCC; Breast, 48 h exposure", "value": 2490, "unit": "nM"},
      {"measurement": "IC50", "setting": "MDA-MB-231/ATCC; Table 4, read-out: Comparative efficacy", "value": 2490, "unit": "nM"},
      {"measurement": "IC50", "setting": "HCT-116; HCT-116, HCT116, Table 4, read-out: Comparative efficacy", "value": 2330, "unit": "nM"},
      {"measurement": "GI50", "setting": "HCT-116; HCT-116, Colon, 48 h exposure", "value": 2330, "unit": "nM"},
      {"measurement": "GI50", "setting": "[2]; Ovarian, average of six to eight cell lines, read-out: Log10 GI50 (converted)", "value": 2190, "unit": "nM"},
      {"measurement": "CC50", "setting": "[2]; Ovarian, average of six to eight cell lines, read-out: Log10 LC50 (converted)", "value": 52500, "unit": "nM"},
      {"measurement": "GI50", "setting": "[2]; exposure period of at least 48 hrs, read-out: GI50, range over ovarian cell lines", "value": "1040 to 3780", "unit": "nM"},
      {"measurement": "GI50", "setting": "BT-549", "value": 3760, "unit": "nM"},
      {"measurement": "GI50", "setting": "NCI-H522", "value": 2320, "unit": "nM"},
      {"measurement": "GI50", "setting": "SF-539", "value": 1740, "unit": "nM"},
      {"measurement": "GI50", "setting": "MDAMB-435", "value": 1820, "unit": "nM"},
      {"measurement": "GI50", "setting": "HCT-15", "value": 2940, "unit": "nM"}
    ]}
  ]
}
